# In ChEMBL document CHEMBL5291721, “A preclinical secondary pharmacology resource illuminates target-adverse drug reaction associations of marketed drugs” (Nat Commun, 2023):
# Columns and labels:
# [1] = target: T1, Alpha-1A adrenergic receptor (Homo sapiens, UniProt P35348)
# T1 sequence (P35348 whole entry): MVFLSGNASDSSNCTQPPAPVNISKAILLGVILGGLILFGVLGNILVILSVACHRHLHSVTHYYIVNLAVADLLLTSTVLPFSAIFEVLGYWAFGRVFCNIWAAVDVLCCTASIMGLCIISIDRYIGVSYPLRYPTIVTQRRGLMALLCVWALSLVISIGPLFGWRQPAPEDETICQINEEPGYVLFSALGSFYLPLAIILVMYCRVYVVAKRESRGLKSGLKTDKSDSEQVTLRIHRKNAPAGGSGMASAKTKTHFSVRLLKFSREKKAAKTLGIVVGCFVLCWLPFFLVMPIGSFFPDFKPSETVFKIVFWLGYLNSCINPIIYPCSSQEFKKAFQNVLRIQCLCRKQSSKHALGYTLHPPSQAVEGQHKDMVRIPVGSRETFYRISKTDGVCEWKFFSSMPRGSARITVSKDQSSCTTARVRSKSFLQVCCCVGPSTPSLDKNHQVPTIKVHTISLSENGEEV
# [2] = target: Beta-1 adrenergic receptor (Homo sapiens, UniProt P08588); type: functional
# [3] = target: T2, Beta-2 adrenergic receptor (Homo sapiens, UniProt P07550); type: functional, cell-based
# [4] = target: T2, Beta-2 adrenergic receptor
# [5] = target: T3, Neuropeptide Y receptor type 1 (Homo sapiens, UniProt P25929)
# T3 sequence (P25929 whole entry): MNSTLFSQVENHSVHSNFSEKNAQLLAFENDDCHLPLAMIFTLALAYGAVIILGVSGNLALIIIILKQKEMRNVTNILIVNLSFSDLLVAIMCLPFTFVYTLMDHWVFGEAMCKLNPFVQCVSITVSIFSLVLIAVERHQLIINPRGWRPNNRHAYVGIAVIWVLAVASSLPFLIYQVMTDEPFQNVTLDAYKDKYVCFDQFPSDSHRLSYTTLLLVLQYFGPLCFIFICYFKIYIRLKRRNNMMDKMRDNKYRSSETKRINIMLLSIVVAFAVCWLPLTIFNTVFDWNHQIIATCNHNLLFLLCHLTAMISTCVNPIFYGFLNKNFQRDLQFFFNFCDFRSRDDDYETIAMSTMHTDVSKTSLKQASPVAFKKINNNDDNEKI
# Thromboxane A2 receptor [6] = target: T4, Thromboxane A2 receptor (Homo sapiens, UniProt P21731)
# T4 sequence (P21731 whole entry): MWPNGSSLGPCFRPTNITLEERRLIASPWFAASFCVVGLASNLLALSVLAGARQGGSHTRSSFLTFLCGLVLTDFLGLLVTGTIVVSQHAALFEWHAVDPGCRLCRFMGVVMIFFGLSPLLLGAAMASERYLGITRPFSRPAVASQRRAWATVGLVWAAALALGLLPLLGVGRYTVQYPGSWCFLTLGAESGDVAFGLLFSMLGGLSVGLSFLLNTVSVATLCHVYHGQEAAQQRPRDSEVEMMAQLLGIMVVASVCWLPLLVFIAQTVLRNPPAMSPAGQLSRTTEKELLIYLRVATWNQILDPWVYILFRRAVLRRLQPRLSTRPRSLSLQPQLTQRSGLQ
# Melanocortin receptor 4 = Melanocortin receptor 4 (Homo sapiens, UniProt P32245)
# Acetylcholinesterase = Acetylcholinesterase (Homo sapiens, UniProt P22303); type: functional
# Prothrombin = Prothrombin (Homo sapiens, UniProt P00734); type: functional
# [7] = target: T5, Amine oxidase [flavin-containing] A (Homo sapiens, UniProt P21397); type: functional
# T5 sequence (P21397 whole entry): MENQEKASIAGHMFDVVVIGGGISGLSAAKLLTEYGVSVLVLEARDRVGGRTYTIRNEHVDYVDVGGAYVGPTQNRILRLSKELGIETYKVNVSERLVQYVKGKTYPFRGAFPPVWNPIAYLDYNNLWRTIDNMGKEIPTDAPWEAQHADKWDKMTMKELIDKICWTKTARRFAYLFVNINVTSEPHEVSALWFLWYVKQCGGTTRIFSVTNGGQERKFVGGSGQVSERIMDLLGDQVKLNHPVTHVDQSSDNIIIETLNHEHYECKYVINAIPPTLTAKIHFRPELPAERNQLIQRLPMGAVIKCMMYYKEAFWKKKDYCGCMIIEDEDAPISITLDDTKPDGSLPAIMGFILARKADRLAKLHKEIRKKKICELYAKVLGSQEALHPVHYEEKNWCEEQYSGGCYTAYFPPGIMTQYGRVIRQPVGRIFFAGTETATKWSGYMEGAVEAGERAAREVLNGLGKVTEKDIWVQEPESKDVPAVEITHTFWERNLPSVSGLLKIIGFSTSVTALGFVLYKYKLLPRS
# [8] = target: cGMP-inhibited 3',5'-cyclic phosphodiesterase 3A (Homo sapiens, UniProt Q14432); type: functional
# [9] = target: Sodium-dependent noradrenaline transporter (Homo sapiens, UniProt P23975)
# Thromboxane A2 receptor [10] = target: T4, Thromboxane A2 receptor; type: functional, cell-based
# [11] = target: T6, Alpha-2B adrenergic receptor (Homo sapiens, UniProt P18089)
# T6 sequence (P18089 whole entry): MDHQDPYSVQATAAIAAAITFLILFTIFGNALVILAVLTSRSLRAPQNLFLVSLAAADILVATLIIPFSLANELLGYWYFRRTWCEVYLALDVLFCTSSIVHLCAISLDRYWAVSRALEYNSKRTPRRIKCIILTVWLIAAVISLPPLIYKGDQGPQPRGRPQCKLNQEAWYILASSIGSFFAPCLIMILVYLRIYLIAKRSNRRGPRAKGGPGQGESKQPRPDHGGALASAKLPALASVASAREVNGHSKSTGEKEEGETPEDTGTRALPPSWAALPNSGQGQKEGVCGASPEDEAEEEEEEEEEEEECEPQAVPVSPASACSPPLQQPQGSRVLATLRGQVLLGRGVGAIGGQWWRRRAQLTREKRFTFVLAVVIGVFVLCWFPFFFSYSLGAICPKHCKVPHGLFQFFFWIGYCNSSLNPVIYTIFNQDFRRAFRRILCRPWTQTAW
# Further: assay procedure not described here.
# Chain of Sodium-dependent noradrenaline transporter (P23975 whole entry): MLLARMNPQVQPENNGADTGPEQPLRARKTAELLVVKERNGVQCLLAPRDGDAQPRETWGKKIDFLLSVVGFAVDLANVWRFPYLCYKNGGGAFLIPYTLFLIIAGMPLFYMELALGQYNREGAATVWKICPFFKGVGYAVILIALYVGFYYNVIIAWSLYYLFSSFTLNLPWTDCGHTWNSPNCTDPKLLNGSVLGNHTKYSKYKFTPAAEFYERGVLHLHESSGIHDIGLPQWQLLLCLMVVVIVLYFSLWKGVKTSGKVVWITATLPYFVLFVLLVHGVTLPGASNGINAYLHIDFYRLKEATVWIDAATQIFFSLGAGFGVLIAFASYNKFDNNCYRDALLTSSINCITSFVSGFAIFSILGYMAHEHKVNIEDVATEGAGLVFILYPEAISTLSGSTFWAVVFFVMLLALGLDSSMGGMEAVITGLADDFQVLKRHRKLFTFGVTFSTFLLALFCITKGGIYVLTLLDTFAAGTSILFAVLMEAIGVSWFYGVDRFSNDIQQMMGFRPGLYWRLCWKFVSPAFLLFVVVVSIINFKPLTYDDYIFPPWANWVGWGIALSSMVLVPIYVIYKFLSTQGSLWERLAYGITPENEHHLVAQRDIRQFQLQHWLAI
# Chain of Melanocortin receptor 4 (P32245 whole entry): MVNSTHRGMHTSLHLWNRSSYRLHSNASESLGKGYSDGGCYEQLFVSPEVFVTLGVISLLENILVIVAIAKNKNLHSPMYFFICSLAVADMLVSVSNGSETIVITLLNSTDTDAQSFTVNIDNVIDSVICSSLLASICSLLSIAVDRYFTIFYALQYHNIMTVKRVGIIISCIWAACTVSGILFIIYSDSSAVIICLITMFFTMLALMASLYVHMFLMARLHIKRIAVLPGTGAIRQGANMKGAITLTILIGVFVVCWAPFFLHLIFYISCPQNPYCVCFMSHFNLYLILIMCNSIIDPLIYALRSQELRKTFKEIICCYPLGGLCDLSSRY
# Chain of Acetylcholinesterase (P22303 whole entry): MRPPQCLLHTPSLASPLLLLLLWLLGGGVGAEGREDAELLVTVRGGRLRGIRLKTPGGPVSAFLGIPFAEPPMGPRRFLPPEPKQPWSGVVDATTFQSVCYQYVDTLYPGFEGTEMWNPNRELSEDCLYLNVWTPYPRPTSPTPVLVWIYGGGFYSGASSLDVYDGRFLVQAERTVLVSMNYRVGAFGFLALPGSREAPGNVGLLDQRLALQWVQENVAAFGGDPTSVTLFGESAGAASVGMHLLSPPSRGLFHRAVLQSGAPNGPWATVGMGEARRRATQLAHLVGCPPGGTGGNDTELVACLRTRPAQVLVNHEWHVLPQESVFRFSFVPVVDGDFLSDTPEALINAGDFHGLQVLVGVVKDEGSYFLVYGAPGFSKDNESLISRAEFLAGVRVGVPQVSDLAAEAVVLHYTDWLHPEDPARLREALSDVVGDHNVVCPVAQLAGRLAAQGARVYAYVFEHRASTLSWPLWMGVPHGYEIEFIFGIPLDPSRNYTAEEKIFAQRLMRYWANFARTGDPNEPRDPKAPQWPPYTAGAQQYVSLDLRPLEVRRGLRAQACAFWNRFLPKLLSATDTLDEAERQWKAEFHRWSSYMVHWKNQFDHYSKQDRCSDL
# Chain of cGMP-inhibited 3',5'-cyclic phosphodiesterase 3A (Q14432 whole entry): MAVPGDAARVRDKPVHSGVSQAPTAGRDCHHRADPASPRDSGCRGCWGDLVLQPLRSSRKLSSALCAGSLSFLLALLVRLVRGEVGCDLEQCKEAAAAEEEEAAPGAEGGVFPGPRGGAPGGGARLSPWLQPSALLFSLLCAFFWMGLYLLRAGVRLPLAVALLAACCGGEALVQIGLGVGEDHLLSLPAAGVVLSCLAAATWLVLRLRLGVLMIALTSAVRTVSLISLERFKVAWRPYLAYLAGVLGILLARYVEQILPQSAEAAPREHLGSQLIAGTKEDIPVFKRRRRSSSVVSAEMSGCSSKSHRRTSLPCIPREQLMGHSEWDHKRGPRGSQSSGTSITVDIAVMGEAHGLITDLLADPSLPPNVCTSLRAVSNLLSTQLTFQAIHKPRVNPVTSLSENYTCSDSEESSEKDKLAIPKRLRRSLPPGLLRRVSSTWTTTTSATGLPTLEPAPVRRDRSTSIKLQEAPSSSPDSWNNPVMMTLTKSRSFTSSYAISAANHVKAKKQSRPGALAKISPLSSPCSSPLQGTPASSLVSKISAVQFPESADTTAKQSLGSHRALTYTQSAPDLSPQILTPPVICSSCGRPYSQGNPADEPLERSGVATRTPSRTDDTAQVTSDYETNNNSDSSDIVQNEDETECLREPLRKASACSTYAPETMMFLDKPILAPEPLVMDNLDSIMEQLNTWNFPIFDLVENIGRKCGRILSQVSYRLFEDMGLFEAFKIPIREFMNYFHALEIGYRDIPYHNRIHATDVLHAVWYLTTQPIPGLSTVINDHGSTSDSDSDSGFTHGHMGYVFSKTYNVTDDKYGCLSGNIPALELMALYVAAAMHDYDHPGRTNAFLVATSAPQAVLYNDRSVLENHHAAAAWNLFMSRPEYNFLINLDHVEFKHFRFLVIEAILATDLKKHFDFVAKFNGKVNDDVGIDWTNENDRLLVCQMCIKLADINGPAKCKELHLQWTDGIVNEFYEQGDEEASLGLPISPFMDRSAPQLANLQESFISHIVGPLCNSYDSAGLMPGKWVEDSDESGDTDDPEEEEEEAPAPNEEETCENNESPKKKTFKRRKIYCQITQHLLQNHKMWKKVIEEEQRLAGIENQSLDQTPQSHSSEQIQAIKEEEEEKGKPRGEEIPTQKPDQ
# Chain of Beta-1 adrenergic receptor (P08588 whole entry): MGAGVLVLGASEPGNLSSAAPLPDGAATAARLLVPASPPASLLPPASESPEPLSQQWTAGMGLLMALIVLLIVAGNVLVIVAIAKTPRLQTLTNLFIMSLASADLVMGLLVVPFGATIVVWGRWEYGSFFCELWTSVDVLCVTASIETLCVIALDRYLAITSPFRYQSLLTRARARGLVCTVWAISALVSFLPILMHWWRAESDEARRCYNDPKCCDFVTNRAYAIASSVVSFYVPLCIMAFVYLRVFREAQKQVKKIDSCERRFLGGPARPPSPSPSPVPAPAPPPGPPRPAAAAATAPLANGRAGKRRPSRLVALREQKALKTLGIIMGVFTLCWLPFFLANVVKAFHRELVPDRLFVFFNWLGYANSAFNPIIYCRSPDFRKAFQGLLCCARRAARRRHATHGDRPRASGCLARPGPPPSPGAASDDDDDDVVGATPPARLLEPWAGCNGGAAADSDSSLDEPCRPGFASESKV
# T2 sequence (P07550 whole entry): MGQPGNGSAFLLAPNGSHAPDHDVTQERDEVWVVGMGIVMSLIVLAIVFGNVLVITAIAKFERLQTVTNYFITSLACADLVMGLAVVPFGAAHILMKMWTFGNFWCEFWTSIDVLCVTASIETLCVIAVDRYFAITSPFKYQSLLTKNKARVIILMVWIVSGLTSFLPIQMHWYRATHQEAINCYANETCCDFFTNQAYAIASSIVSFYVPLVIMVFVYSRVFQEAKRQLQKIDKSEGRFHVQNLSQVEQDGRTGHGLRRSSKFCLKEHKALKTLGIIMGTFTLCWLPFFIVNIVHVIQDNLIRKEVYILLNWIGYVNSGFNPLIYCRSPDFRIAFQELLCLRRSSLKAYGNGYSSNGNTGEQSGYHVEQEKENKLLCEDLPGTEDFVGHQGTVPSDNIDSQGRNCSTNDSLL
AC50 [1] [µM],AC50 [2] [µM],AC50 [3] [µM],AC50 [4] [µM],AC50 [5] [µM],AC50 (Thromboxane A2 receptor [6]) [µM],AC50 (Melanocortin receptor 4) [µM],AC50 [11] [µM],SMILES,AC50 (Acetylcholinesterase) [µM],AC50 (Prothrombin) [µM],AC50 [7] [µM],AC50 [8] [µM],AC50 [9] [µM],AC50 (Thromboxane A2 receptor [10]) [µM]
–,> 30,> 30,–,> 30,–,–,> 30,N[C@@H](C(=O)N[C@@H]1C(=O)N2C(C(=O)O)=C(Cl)CS[C@H]12)c1ccccc1 [CEFACLOR ANHYDROUS],–,–,–,–,–,–
3.42,> 10,> 30,> 10,> 30,> 30,> 30,–,CCC[C@@H]1C[C@@H](C(=O)N[C@@H]([C@H]2O[C@H](SC)[C@H](O)[C@@H](O)[C@H]2O)[C@H](C)Cl)N(C)C1 [CLINDAMYCIN],–,–,–,–,–,–
–,> 10,> 30,> 10,> 30,> 30,> 30,> 10,COc1cc2c(cc1OC)C(=O)C(CC1CCN(Cc3ccccc3)CC1)C2 (stereo not drawn) [DONEPEZIL],–,> 30,–,> 30,9.13,> 30
> 10,> 10,> 30,> 10,> 30,> 30,> 30,–,NC(N)=Nc1nc(CSCCC(N)=NS(N)(=O)=O)cs1 [FAMOTIDINE],–,–,–,–,–,–
> 10,> 10,–,> 10,> 10,> 10,> 10,> 10,C[C@@H]1O[C@@H]1P(=O)(O)O [FOSFOMYCIN],–,–,–,–,–,–
> 30,> 10,–,> 10,> 10,> 10,> 10,> 10,CN1C(=O)CC(C)(c2ccccc2)C1=O (stereo not drawn) [METHSUXIMIDE],–,–,–,–,–,–
> 10,> 10,> 30,> 10,> 30,> 30,> 30,–,CCN(CC)CCNC(=O)c1cc(Cl)c(N)cc1OC [METOCLOPRAMIDE],–,–,–,–,–,–
–,> 30,> 30,–,> 30,–,–,–,Cc1cccc(C)c1OCC(C)N (stereo not drawn) [MEXILETINE],–,–,–,–,–,–
–,> 30,> 30,–,> 30,–,–,> 30,NC(=O)c1ncn([C@@H]2O[C@H](CO)[C@@H](O)[C@H]2O)c1O [MIZORIBINE],–,–,–,–,–,–
0.833,> 10,–,> 10,> 30,23.9,> 30,0.34,CCc1nn(CCCN2CCN(c3cccc(Cl)c3)CC2)c(=O)n1CCOc1ccccc1 [NEFAZODONE],–,–,–,–,–,–
> 10,> 30,> 30,> 10,–,–,–,–,CC[C@H](C)C(=O)O[C@H]1C[C@H](O)C=C2C=C[C@H](C)[C@H](CC[C@@H](O)C[C@@H](O)CC(=O)O)[C@H]21 [PRAVASTATIN],–,–,–,–,–,–
14.6,> 10,–,> 10,> 10,> 10,> 10,> 10,Cc1ccc(C(=O)c2cc(O)c(O)c([N+](=O)[O-])c2)cc1 [TOLCAPONE],–,–,–,–,–,–

# Second part, the molecule before the results:
SMILES,AC50 [1] [µM],AC50 [2] [µM],AC50 [3] [µM],AC50 [4] [µM],AC50 [5] [µM],AC50 (Thromboxane A2 receptor [6]) [µM],AC50 (Melanocortin receptor 4) [µM],AC50 [11] [µM],AC50 (Acetylcholinesterase) [µM],AC50 (Prothrombin) [µM],AC50 [7] [µM],AC50 [8] [µM],AC50 [9] [µM],AC50 (Thromboxane A2 receptor [10]) [µM]
CO/N=C(\C(=O)N[C@@H]1C(=O)N2C(C(=O)[O-])=C(C[N+]3(C)CCCC3)CS[C@H]12)c1csc(N)n1,> 30,> 300,> 300,> 30,> 30,> 30,–,–,–,–,–,–,–,–
CCOC(=O)[C@H](CCc1ccccc1)N[C@@H](C)C(=O)N1CCC[C@H]1C(=O)O,> 10,> 10,> 30,> 10,> 30,> 30,> 30,–,–,–,–,–,–,–
Nc1nc(N)c2nc(-c3ccccc3)c(N)nc2n1,> 10,> 30,> 30,> 30,> 30,> 30,> 10,–,> 30,> 3,> 30,> 30,16.1,> 30
CC(=O)c1ccc2c(c1)N(CCCN1CCN(CCO)CC1)c1ccccc1S2 [ACETOPHENAZINE],–,–,> 30,–,–,–,–,0.056,–,–,–,–,–,–
CN1CCCC(n2nc(Cc3ccc(Cl)cc3)c3ccccc3c2=O)CC1 (stereo not drawn) [AZELASTINE],–,18,> 30,–,–,–,–,3.8,–,–,–,–,–,–
CC(=O)OCC(=O)[C@@]1(O)CC[C@H]2[C@@H]3CCC4=CC(=O)CC[C@]4(C)[C@H]3C(=O)C[C@@]21C [CORTISONE ACETATE],–,–,> 30,–,–,–,–,–,–,> 30,–,–,–,–
CN(CCOc1ccc(NS(C)(=O)=O)cc1)CCc1ccc(NS(C)(=O)=O)cc1 [DOFETILIDE],> 10,> 10,–,> 10,> 30,> 30,> 30,> 10,13.6,> 30,> 30,> 30,> 30,> 30
CC(C)Cc1ccc(CC(=O)O)cc1 [IBUFENAC],–,> 30,> 30,–,–,–,–,> 30,–,–,–,–,–,–
CC(C)NNC(=O)c1ccncc1 [IPRONIAZID],–,> 30,> 30,–,–,–,–,–,–,–,–,–,–,–
OCCN1CCN(CCCN2c3ccccc3C=Cc3ccccc32)CC1 [OPIPRAMOL],–,> 30,> 30,–,> 30,–,–,10,> 30,> 30,> 30,> 30,6.62,> 30
O=C(NC[C@H]1CN(c2ccc(N3CCOCC3=O)cc2)C(=O)O1)c1ccc(Cl)s1 [RIVAROXABAN],–,–,> 30,–,–,–,–,> 30,> 30,–,> 30,> 30,> 30,> 3
